The assay has as its target T1, MDM2 (Homo sapiens, UniProt Q00987).
T1 construct: GST-MDM2
The assay can be described thus: fluorescence polarization competitive binding assay (PMDM6-F tracer); also cellular thermal shift assay in MCF-7 and MDA-MB-231 cells.

T1 sequence (Q00987 whole entry): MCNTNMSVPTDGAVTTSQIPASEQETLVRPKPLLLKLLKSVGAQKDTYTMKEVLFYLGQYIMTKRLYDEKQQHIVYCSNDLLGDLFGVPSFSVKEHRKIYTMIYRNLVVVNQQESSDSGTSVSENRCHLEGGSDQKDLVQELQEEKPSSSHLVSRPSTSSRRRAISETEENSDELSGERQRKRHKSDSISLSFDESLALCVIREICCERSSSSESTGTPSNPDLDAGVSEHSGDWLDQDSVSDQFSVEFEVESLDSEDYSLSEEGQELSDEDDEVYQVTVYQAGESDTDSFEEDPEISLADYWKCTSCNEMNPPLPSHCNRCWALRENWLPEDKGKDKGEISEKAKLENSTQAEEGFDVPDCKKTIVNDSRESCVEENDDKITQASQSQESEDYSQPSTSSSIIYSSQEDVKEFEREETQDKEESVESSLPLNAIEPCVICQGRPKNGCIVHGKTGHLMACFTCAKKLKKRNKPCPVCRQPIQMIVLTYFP

On to JapA, for which the Ki amounted to 270 nM.

These data come from PMC4413606, “Identification of a new class of natural product MDM2 inhibitor: In vitro and in vivo anti-breast cancer activities and target validation” (Oncotarget, 2014).
